In PubChem BioAssay (NCI):
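Growth conditions: 96-well plates. Treatment: test compound, 48 hours, 5 concentrations. Analysis: linear interpolation between bracketing concentrations; unreached endpoints set to highest concentration. Here, GI50 denotes the concentration required for 50% inhibition of growth. The concentration for full growth arrest is given as TGI.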

Tests used:
Test in all cases: NCI anticancer screen, dose series, 48 h
786-0 renal = tested on: 786-0 renal
M14 melanoma = tested on: M14 melanoma
U251 CNS = tested on: U251 CNS
HCT-15 colon = tested on: HCT-15 colon
PC-3 prostate = tested on: PC-3 prostate
UACC-257 melanoma = tested on: UACC-257 melanoma
OVCAR-5 ovarian = tested on: OVCAR-5 ovarian
OVCAR-8 ovarian = tested on: OVCAR-8 ovarian
NCI-H522 lung = tested on: NCI-H522 lung
CAKI-1 renal = tested on: CAKI-1 renal
NCI-H226 lung = tested on: NCI-H226 lung
LOX IMVI melanoma = tested on: LOX IMVI melanoma
KM12 colon = tested on: KM12 colon
A549 NSCLC = tested on: A549 NSCLC
MDA-MB-435 = tested on: MDA-MB-435
EKVX NSCLC = tested on: EKVX NSCLC
HCT-116 colon = tested on: HCT-116 colon
SF-295 CNS = tested on: SF-295 CNS
SK-OV-3 ovarian = tested on: SK-OV-3 ovarian
COLO 205 colon = tested on: COLO 205 colon
MCF7 breast = tested on: MCF7 breast
OVCAR-3 ovarian = tested on: OVCAR-3 ovarian
UACC-62 melanoma = tested on: UACC-62 melanoma
NCI-H460 lung = tested on: NCI-H460 lung
UO-31 renal = tested on: UO-31 renal
CCRF-CEM leukemia = tested on: CCRF-CEM leukemia
HOP-92 NSCLC = tested on: HOP-92 NSCLC
DU-145 prostate = tested on: DU-145 prostate
SR leukemia = tested on: SR leukemia
OVCAR-4 ovarian = tested on: OVCAR-4 ovarian
SK-MEL-2 melanoma = tested on: SK-MEL-2 melanoma
SW-620 colon = tested on: SW-620 colon
T-47D breast = tested on: T-47D breast
SNB-19 CNS = tested on: SNB-19 CNS
HCC-2998 colon = tested on: HCC-2998 colon
TK-10 renal = tested on: TK-10 renal
NCI/ADR-RES ovarian = tested on: NCI/ADR-RES ovarian
SF-539 CNS = tested on: SF-539 CNS
HT29 colon = tested on: HT29 colon
MDA-MB-231 breast = tested on: MDA-MB-231 breast
MOLT-4 leukemia = tested on: MOLT-4 leukemia
SK-MEL-28 melanoma = tested on: SK-MEL-28 melanoma
ACHN renal = tested on: ACHN renal
SNB-75 CNS = tested on: SNB-75 CNS
A498 renal = tested on: A498 renal
RPMI-8226 leukemia = tested on: RPMI-8226 leukemia
SF-268 CNS = tested on: SF-268 CNS
MALME-3M melanoma = tested on: MALME-3M melanoma
HS 578T breast = tested on: HS 578T breast
SN12C renal = tested on: SN12C renal
NCI-H23 lung = tested on: NCI-H23 lung
BT-549 breast = tested on: BT-549 breast
HOP-62 NSCLC = tested on: HOP-62 NSCLC
RXF 393 renal = tested on: RXF 393 renal
SK-MEL-5 melanoma = tested on: SK-MEL-5 melanoma
IGROV1 ovarian = tested on: IGROV1 ovarian

**Q.** For Cc1cc2[nH]c(=O)c3c4ccccc4cn3c2cc1C, which GI50 (786-0 renal) is on record?
**A.** 10.7 µM

**Q.** And the TGI (786-0 renal)?
**A.** 22.7 µM

**Q.** What about the GI50 (M14 melanoma) of the same compound?
**A.** 13.6 µM

**Q.** What about the TGI (M14 melanoma) of the same compound?
**A.** 26.9 µM

**Q.** What about the GI50 (U251 CNS) of the same compound?
**A.** 4.03 µM

**Q.** And the TGI (U251 CNS)?
**A.** 14.2 µM

**Q.** What about the GI50 (HCT-15 colon) of the same compound?
**A.** 6.18 µM

**Q.** And the TGI (HCT-15 colon)?
**A.** 22 µM

**Q.** And the GI50 (PC-3 prostate)?
**A.** 12 µM

**Q.** What about the TGI (PC-3 prostate) of the same compound?
**A.** 25.4 µM

**Q.** What about the GI50 (UACC-257 melanoma) of the same compound?
**A.** 20.2 µM

**Q.** And the TGI (UACC-257 melanoma)?
**A.** 35.9 µM

**Q.** And the GI50 (OVCAR-5 ovarian)?
**A.** 13.8 µM

**Q.** What about the TGI (OVCAR-5 ovarian) of the same compound?
**A.** 27.4 µM

**Q.** What about the GI50 (OVCAR-8 ovarian) of the same compound?
**A.** 7.07 µM

**Q.** And the TGI (OVCAR-8 ovarian)?
**A.** 25.9 µM

**Q.** What about the GI50 (NCI-H522 lung) of the same compound?
**A.** 14.5 µM

**Q.** And the TGI (NCI-H522 lung)?
**A.** 31.1 µM

**Q.** And the GI50 (CAKI-1 renal)?
**A.** 5.33 µM

**Q.** And the TGI (CAKI-1 renal)?
**A.** 17.8 µM

**Q.** And the GI50 (NCI-H226 lung)?
**A.** 15.1 µM

**Q.** And the TGI (NCI-H226 lung)?
**A.** 36.7 µM

**Q.** And the GI50 (LOX IMVI melanoma)?
**A.** 2.04 µM

**Q.** And the TGI (LOX IMVI melanoma)?
**A.** 4.02 µM

**Q.** And the GI50 (KM12 colon)?
**A.** 7.06 µM

**Q.** What about the TGI (KM12 colon) of the same compound?
**A.** 21.5 µM

**Q.** And the GI50 (A549 NSCLC)?
**A.** 14.8 µM

**Q.** And the TGI (A549 NSCLC)?
**A.** 37.7 µM

**Q.** What about the GI50 (MDA-MB-435) of the same compound?
**A.** 6 µM

**Q.** What about the TGI (MDA-MB-435) of the same compound?
**A.** 19.8 µM

**Q.** And the GI50 (EKVX NSCLC)?
**A.** 13.6 µM

**Q.** And the TGI (EKVX NSCLC)?
**A.** 31.9 µM

**Q.** What about the GI50 (HCT-116 colon) of the same compound?
**A.** 1.58 µM

**Q.** What about the TGI (HCT-116 colon) of the same compound?
**A.** 3.13 µM

**Q.** What about the GI50 (SF-295 CNS) of the same compound?
**A.** 12.2 µM

**Q.** And the TGI (SF-295 CNS)?
**A.** 28.5 µM

**Q.** What about the GI50 (SK-OV-3 ovarian) of the same compound?
**A.** 18.4 µM

**Q.** What about the TGI (SK-OV-3 ovarian) of the same compound?
**A.** 34.5 µM

**Q.** What about the GI50 (COLO 205 colon) of the same compound?
**A.** 15.2 µM

**Q.** And the TGI (COLO 205 colon)?
**A.** 40 µM

**Q.** And the GI50 (MCF7 breast)?
**A.** 11.8 µM

**Q.** What about the TGI (MCF7 breast) of the same compound?
**A.** > 100 µM

**Q.** And the GI50 (OVCAR-3 ovarian)?
**A.** 14 µM

**Q.** And the TGI (OVCAR-3 ovarian)?
**A.** 28.5 µM

**Q.** And the GI50 (UACC-62 melanoma)?
**A.** 16.7 µM

**Q.** What about the TGI (UACC-62 melanoma) of the same compound?
**A.** 31.9 µM

**Q.** What about the GI50 (NCI-H460 lung) of the same compound?
**A.** 4.43 µM

**Q.** And the TGI (NCI-H460 lung)?
**A.** 20.3 µM

**Q.** What about the GI50 (UO-31 renal) of the same compound?
**A.** 14.6 µM

**Q.** And the TGI (UO-31 renal)?
**A.** 28 µM

**Q.** What about the GI50 (CCRF-CEM leukemia) of the same compound?
**A.** 9.92 µM

**Q.** What about the TGI (CCRF-CEM leukemia) of the same compound?
**A.** 31.2 µM

**Q.** What about the GI50 (HOP-92 NSCLC) of the same compound?
**A.** 15.4 µM

**Q.** And the TGI (HOP-92 NSCLC)?
**A.** 30.2 µM

**Q.** What about the GI50 (DU-145 prostate) of the same compound?
**A.** 13.9 µM

**Q.** And the TGI (DU-145 prostate)?
**A.** 30.1 µM

**Q.** And the GI50 (SR leukemia)?
**A.** 2.6 µM

**Q.** What about the TGI (SR leukemia) of the same compound?
**A.** 5.75 µM

**Q.** And the GI50 (OVCAR-4 ovarian)?
**A.** 13.5 µM

**Q.** And the TGI (OVCAR-4 ovarian)?
**A.** 27.6 µM

**Q.** What about the GI50 (SK-MEL-2 melanoma) of the same compound?
**A.** 18.1 µM

**Q.** And the TGI (SK-MEL-2 melanoma)?
**A.** 34.8 µM

**Q.** And the GI50 (SW-620 colon)?
**A.** 3.83 µM

**Q.** What about the TGI (SW-620 colon) of the same compound?
**A.** 33.2 µM

**Q.** What about the GI50 (T-47D breast) of the same compound?
**A.** 15.4 µM

**Q.** What about the TGI (T-47D breast) of the same compound?
**A.** 50 µM

**Q.** And the GI50 (SNB-19 CNS)?
**A.** 16.3 µM

**Q.** What about the TGI (SNB-19 CNS) of the same compound?
**A.** 36.7 µM

**Q.** And the GI50 (HCC-2998 colon)?
**A.** 4.04 µM

**Q.** And the TGI (HCC-2998 colon)?
**A.** 16.7 µM

**Q.** What about the GI50 (TK-10 renal) of the same compound?
**A.** 19.7 µM

**Q.** And the TGI (TK-10 renal)?
**A.** 34.2 µM

**Q.** What about the GI50 (NCI/ADR-RES ovarian) of the same compound?
**A.** 13.6 µM

**Q.** What about the TGI (NCI/ADR-RES ovarian) of the same compound?
**A.** 31.7 µM

**Q.** And the GI50 (SF-539 CNS)?
**A.** 11.2 µM

**Q.** And the TGI (SF-539 CNS)?
**A.** 27 µM

**Q.** What about the GI50 (HT29 colon) of the same compound?
**A.** 6.09 µM

**Q.** What about the TGI (HT29 colon) of the same compound?
**A.** > 100 µM

**Q.** What about the GI50 (MDA-MB-231 breast) of the same compound?
**A.** 8.34 µM

**Q.** What about the TGI (MDA-MB-231 breast) of the same compound?
**A.** 23.7 µM

**Q.** And the GI50 (MOLT-4 leukemia)?
**A.** 5.68 µM

**Q.** What about the TGI (MOLT-4 leukemia) of the same compound?
**A.** 19.4 µM

**Q.** And the GI50 (SK-MEL-28 melanoma)?
**A.** 14.8 µM

**Q.** And the TGI (SK-MEL-28 melanoma)?
**A.** 35.1 µM

**Q.** What about the GI50 (ACHN renal) of the same compound?
**A.** 10.2 µM

**Q.** And the TGI (ACHN renal)?
**A.** 23.5 µM

**Q.** And the GI50 (SNB-75 CNS)?
**A.** 15.5 µM

**Q.** What about the TGI (SNB-75 CNS) of the same compound?
**A.** 30.4 µM

**Q.** What about the GI50 (A498 renal) of the same compound?
**A.** 21.5 µM

**Q.** And the TGI (A498 renal)?
**A.** 39.6 µM

**Q.** And the GI50 (RPMI-8226 leukemia)?
**A.** 6.75 µM

**Q.** And the TGI (RPMI-8226 leukemia)?
**A.** 29.8 µM

**Q.** And the GI50 (SF-268 CNS)?
**A.** 15.3 µM

**Q.** And the TGI (SF-268 CNS)?
**A.** 32.4 µM

**Q.** What about the GI50 (MALME-3M melanoma) of the same compound?
**A.** 22.2 µM

**Q.** What about the TGI (MALME-3M melanoma) of the same compound?
**A.** 37.5 µM

**Q.** And the GI50 (HS 578T breast)?
**A.** 25 µM

**Q.** And the TGI (HS 578T breast)?
**A.** 59.9 µM

**Q.** What about the GI50 (SN12C renal) of the same compound?
**A.** 6.02 µM

**Q.** And the TGI (SN12C renal)?
**A.** 20.3 µM

**Q.** What about the GI50 (NCI-H23 lung) of the same compound?
**A.** 14.9 µM

**Q.** And the TGI (NCI-H23 lung)?
**A.** 32.2 µM

**Q.** And the GI50 (BT-549 breast)?
**A.** 19.6 µM

**Q.** What about the TGI (BT-549 breast) of the same compound?
**A.** 40.9 µM

**Q.** What about the GI50 (HOP-62 NSCLC) of the same compound?
**A.** 2.71 µM

**Q.** And the TGI (HOP-62 NSCLC)?
**A.** 8.18 µM

**Q.** And the GI50 (RXF 393 renal)?
**A.** 12 µM

**Q.** What about the TGI (RXF 393 renal) of the same compound?
**A.** 27.4 µM

**Q.** And the GI50 (SK-MEL-5 melanoma)?
**A.** 13.6 µM

**Q.** And the TGI (SK-MEL-5 melanoma)?
**A.** 29.6 µM

**Q.** And the GI50 (IGROV1 ovarian)?
**A.** 12.3 µM

**Q.** What about the TGI (IGROV1 ovarian) of the same compound?
**A.** 26.6 µM
